Data as given in patent publication US10239887B2, “Positive allosteric modulators of the muscarinic acetylcholine receptor M4” (Vanderbilt University, priority 2016, dated 2019).
Structures can show the parent of a compound that is named as a salt. Where two headings read alike, the source gives them in different places.

Molecular target: T1, human mAChR M4 (Homo sapiens, UniProt P08173)
T1 sequence (P08173 1-479): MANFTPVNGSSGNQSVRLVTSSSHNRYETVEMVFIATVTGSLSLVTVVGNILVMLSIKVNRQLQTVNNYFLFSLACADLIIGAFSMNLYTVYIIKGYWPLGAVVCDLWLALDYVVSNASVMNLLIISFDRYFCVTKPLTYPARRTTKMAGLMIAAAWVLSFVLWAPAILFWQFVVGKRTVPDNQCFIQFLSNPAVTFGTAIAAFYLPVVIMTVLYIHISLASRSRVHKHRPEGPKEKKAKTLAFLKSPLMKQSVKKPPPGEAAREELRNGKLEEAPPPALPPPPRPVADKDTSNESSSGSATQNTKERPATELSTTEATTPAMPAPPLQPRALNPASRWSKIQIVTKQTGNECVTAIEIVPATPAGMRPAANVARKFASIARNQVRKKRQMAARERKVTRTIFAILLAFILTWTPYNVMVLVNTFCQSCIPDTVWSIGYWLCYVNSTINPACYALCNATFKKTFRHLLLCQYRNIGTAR
Experiment: mAChR M4 cell-based functional assay (calcium flux), human M4
Details: for EC50: Human M4 EC50 (nM), calcium flux, PAM activity with EC20 acetylcholine

[1] = Table 10, % ACh maximum at 30 μM

`COC(=O)C12CC(CNc3ncnc4c3sc3nnc(C)c(C)c34)(C1)C2` [Compound 140, methyl 1-[[(3,4-dimethylpyrimido [4′,5′:4,5]thieno[2,3-c]pyridazin-8-yl)amino]methyl]bicyclo[1.1.1] pentane-3-carboxylate] showed an EC50 (Table 10) of 1240 nM and an Emax [1] of 80.3%.

`Cc1nnc2sc3c(N4CC(Nc5ncccc5C#N)C4)ncnc3c2c1C` [Compound 141, 2-((1-(3,4-dimethylpyrimido [4′,5′:4,5]thieno[2,3-c]pyridazin-8-yl)azetidin-3-yl)amino) nicotinonitrile 2,2,2-trifluoroacetate] gave an EC50 (Table 10) of 590 nM and an Emax [1] of 66.4%.

With `Cc1nnc2sc3c(N4Cc5ccc(C(C)(C)O)cc5C4)ncnc3c2c1C` [Compound 142, 2-[2-(3,4-dimethylpyrimido [4′,5′:4,5]thieno[2,3-c]pyridazin-8-yl)isoindolin-5-yl]propan-2-ol; 2,2,2-trifluoroacetic acid] the EC50 (Table 10) was 1250 nM and the Emax [1] was 53.6%.

`Cc1nnc2sc3c(NCc4ccc(C(C)(O)C5CC5)cc4)ncnc3c2c1C` (stereo not shown) [Compound 143, 1-cyclopropyl-1-[4-[[(3,4-dimethylpyrimido [4′,5′:4,5]thieno[2,3-c]pyridazin-8-yl)amino]methyl]phenyl]ethanol] gave an EC50 (Table 10) of 779 nM and an Emax [1] of 61.3%.

In the case of `CCC(O)(CC)c1ccc(CNc2ncnc3c2sc2nnc(C)c(C)c23)cc1` [Compound 144, 3-[4-[[(3,4-dimethylpyrimido [4′,5′:4,5]thieno[2,3-c]pyridazin-8-yl)amino]methyl]phenyl]pentan-3-ol], the EC50 (Table 10) is reported as 986 nM and the Emax [1] is reported as 78.3%.

`CNC(=O)c1ccc(CNc2ncnc3c2sc2nnc(C)c(C)c23)cc1` [Compound 145, 4-[[(3,4-dimethylpyrimido [4′,5′:4,5]thieno[2,3-c]pyridazin-8-yl)amino]methyl]-N-methyl-benzamide] gave an EC50 (Table 10) of 101 nM and an Emax [1] of 82.1%.

For `Cc1nnc2sc3c(NCc4ccc(C(F)(F)F)nc4)ncnc3c2c1C` [Compound 146, 3,4-dimethyl-N-[[6-(trifluoromethyl)-3-pyridyl]methyl]pyrimido [4′,5′:4,5]thieno[2,3-c] pyridazin-8-amine hydrochloride], the EC50 (Table 10) was 828 nM and the Emax [1] was 97.7%.

With `Cc1cc(C)c(CNc2ncnc3c2sc2nnc(C)c(C)c23)cn1` [Compound 147, N-[(4,6-dimethyl-3-pyridyl)methyl]-3,4-dimethyl-pyrimido [4′,5′:4,5]thieno[2,3-c] pyridazin-8-amine hydrochloride] the Emax was 85.8% and the EC50 (Table 10) was 429 nM.

With `Cc1cc(CNc2ncnc3c2sc2nnc(C)c(C)c23)cnc1C` [Compound 148, N-[(5,6-dimethyl-3-pyridyl)methyl]-3,4-dimethyl-pyrimido [4′,5′:4,5]thieno[2,3-c] pyridazin-8-amine hydrochloride] the Emax was 84% and the EC50 (Table 10) was 522 nM.

Compound `Cc1nnc2sc3c(NCc4ccc(C(=O)NC5(C)CC5)cc4)ncnc3c2c1C` [Compound 149, 4-[[(3,4-dimethylpyrimido [4′,5′:4,5]thieno[2,3-c]pyridazin-8-yl)amino]methyl]-N-(1-methylcyclopropyl) benzamide] has an EC50 (Table 10) of 156 nM and an Emax [1] of 78.3%.

With `Cc1nnc2sc3c(NCc4ccc(C(=O)NC5CCC5)cc4)ncnc3c2c1C` [Compound 150, N-cyclobutyl-4-[[(3,4-dimethylpyrimido [4′,5′:4,5]thieno[2,3-c]pyridazin-8-yl)amino]methyl]benzamide] the EC50 (Table 10) was 105 nM and the Emax [1] was 74.9%.

With `Cc1nnc2sc3c(NCc4ccc(C(=O)NC5CC(F)C5)cc4)ncnc3c2c1C` (stereo not shown) [Compound 151, 4-[[(3,4-dimethylpyrimido [4′,5′:4,5]thieno[2,3-c]pyridazin-8-yl)amino]methyl]-N-(3-fluorocyclobutyl) benzamide] the EC50 (Table 10) was 27.7 nM and the Emax [1] was 87.4%.

With `Cc1nnc2sc3c(NCc4ccc(C(=O)NC5CC(F)(F)C5)cc4)ncnc3c2c1C` [Compound 152, N-(3,3-difluorocyclobutyl)-4-[[(3,4-dimethylpyrimido [4′,5′:4,5]thieno[2,3-c]pyridazin-8-yl)amino]methyl]benzamide] the EC50 (Table 10) was 59.2 nM and the Emax [1] was 86.9%.

For `Cc1nnc2sc3c(NCc4ccc(C(=O)NC5CCCC5)cc4)ncnc3c2c1C` [Compound 153, N-cyclopentyl-4-[[(3,4-dimethylpyrimido [4′,5′:4,5]thieno[2,3-c]pyridazin-8-yl)amino]methyl]benzamide], the EC50 (Table 10) was 114 nM and the Emax [1] was 87.4%.

Work on `Cc1nnc2sc3c(NCc4ccc(C(=O)NC5CC6(COC6)C5)cc4)ncnc3c2c1C` [Compound 154, 4-[[(3,4-dimethylpyrimido [4′,5′:4,5]thieno[2,3-c]pyridazin-8-yl)amino]methyl]-N-(2-oxaspiro [3.3]heptan-6-yl)benzamide] yielded an EC50 (Table 10) of 109 nM and an Emax [1] of 87.2%.

`Cc1nnc2sc3c(NCc4ccc(C(=O)NC(C)C)cc4)ncnc3c2c1C` [Compound 155, 4-[[(3,4-dimethylpyrimido [4′,5′:4,5]thieno[2,3-c]pyridazin-8-yl)amino]methyl]-N-isopropyl-benzamide] gave an EC50 (Table 10) of 174 nM and an Emax [1] of 88.1%.

For `Cc1nnc2sc3c(NCc4ccc(C(=O)N5CC(F)(F)C5)cc4)ncnc3c2c1C` [Compound 156, (3,3-difluoroazetidin-1-yl)-[4-[[(3,4-dimethlpyrimido [4′,5′:4,5]thieno[2,3-c]pyridazin-8-yl)amino]methyl]phenyl]methanone], the EC50 (Table 10) was 590 nM and the Emax [1] was 84.9%.

`Cc1nnc2sc3c(NCc4ccc(C(=O)N[C@H](C)C(F)(F)F)cc4)ncnc3c2c1C` [Compound 157, 4-[[(3,4-dimethylpyrimido [4′,5′:4,5]thieno[2,3-c]pyridazin-8-yl)amino]methyl]-N-[(1R)-2,2,2-trifluoro-1-methyl-ethyl]benzamide] showed an EC50 (Table 10) of 244 nM and an Emax [1] of 86.1%.

Compound `Cc1nnc2sc3c(NCc4ccc(C(=O)NC(C)C(C)(C)CO)cc4)ncnc3c2c1C` (stereo not shown) [Compound 158, 4-[[(3,4-dimethylpyrimido [4′,5′:4,5]thieno[2,3-c]pyridazin-8-yl)amino]methyl]-N-(3-hydroxy-1,2,2-trimethyl-propyl) benzamide] has an EC50 (Table 10) of 220 nM and an Emax [1] of 85%.

With `Cc1nnc2sc3c(NCc4ccc(C(=O)NC5CCCCC5)cc4)ncnc3c2c1C` [Compound 159, N-cyclohexyl-4-[[(3,4-dimethylpyrimido [4′,5′:4,5]thieno[2,3-c]pyridazin-8-yl)amino]methyl]benzamide] the EC50 (Table 10) was 380 nM and the Emax [1] was 84.8%.

With `Cc1nnc2sc3c(NCc4ccc(C(=O)NC5CCC(C)(C)CC5)cc4)ncnc3c2c1C` [Compound 160, N-(4,4-dimethylcyclohexyl)-4-[[(3,4-dimethylpyrimido [4′,5′:4,5]thieno[2,3-c]pyridazin-8-yl)amino]methyl]benzamide] the EC50 (Table 10) was 980 nM and the Emax [1] was 86%.

`Cc1nnc2sc3c(N4CC(Nc5ccnc(F)c5F)C4)ncnc3c2c1C` [Compound 161, N-[1-(3,4-dimethylpyrimido[4′,5′:4,5]thieno[2,3-c]pyridazin-8-yl)azetidin-3-yl]-2,3-difluoro-pyridin-4-amine; 2,2,2-trifluoroacetic acid] showed an EC50 (Table 10) of 84.3 nM and an Emax [1] of 80.1%.

Work on `Cc1nnc2sc3c(NC4CC5(C4)CN(c4ncc(Cl)cc4Cl)C5)ncnc3c2c1C` [Compound 162, N-[2-(3,5-dichloro-2-pyridyl)-2-azaspiro[3.3]heptan-6-yl]-3,4-dimethyl-pyrimido[4′,5′:4,5]thieno [2,3-c]pyridazin-8-amine] yielded an EC50 (Table 10) of 5630 nM and an Emax [1] of 48.3%.
